{
  "source": "patent US20020035111A1",
  "about": "“Method of inhibiting neoplastic cells with tetracyclic pyrido[3,4-B] indole derivatives” (priority 1998, published 2002)",
  "data": [
    {"units": {"melting point": "°C"}, "values": [
      {"smiles": "COc1ccc([C@H]2c3[nH]c4ccc(F)cc4c3C[C@@H]3C(=O)N(CC(F)(F)F)CC(=O)N23)cc1", "note": "(relative stereo) [Example 5, Cis-2,3,6,7,12,12a-Hexahydro-10-Fluoro-6-(4-Methoxyphenyl)-2-(2,2,2-Trifluoroethyl)-Pyrazino(2′,1′:6,1)Pyrido(3,4-b)Indole-1,4-Dione]", "melting point": 190},
      {"smiles": "CN1CC(=O)N2[C@H](c3ccc(O)c(O)c3)c3[nH]c4ccccc4c3C[C@@H]2C1=O", "note": "[Example 118, (6R, 12aR)-2,3,6,7,12,12a-Hexahydro-6-(3,4-Dihydroxyphenyl)-2-Methylpyrazino(2′,1′:6,1)Pyrido(3,4-b)Indole-1,4-Dione]", "melting point": "224 to 226"},
      {"smiles": "O=C1[C@H]2Cc3c([nH]c4ccccc34)[C@H](c3ccc4c(c3)CCO4)N2C(=O)CN1CC1CC1", "note": "(relative stereo) [Example 37, Cis-2,3,6,7,12,12a-Hexahydro-6-(2,3-Dihydrobenzo(b)Furan-5-yl)-2-Cyclopropylmethyl-Pyrazino(2′,1′:6,1)Pyrido(3,4-b)Indole-1,4-Dione]", "melting point": "165 to 166"},
      {"smiles": "CCCCN1CC(=O)N2[C@@H](c3ccccc3Cl)c3[nH]c4ccccc4c3C[C@@H]2C1=O", "note": "(relative stereo) [Example 40, Cis-2,3,6,7,12,12a-Hexahydro-2-Butyl-6-(2-Chlorophenyl) Pyrazino(2′,1′:6,1)Pyrido(3,4-b)Indole-1,4-Dione]", "melting point": 146},
      {"smiles": "CN1CC(=O)N2[C@@H](c3ccoc3)c3[nH]c4ccccc4c3C[C@@H]2C1=O", "note": "(relative stereo) [Example 59, Cis-2,3,6,7,12,12a-Hexahydro-2-Methyl-6-(3-Furyl)-Pyrazino(2′,1′:6,1)Pyrido(3,4-b)Indole-1,4-Dione]", "melting point": 250},
      {"smiles": "O=C1[C@H]2Cc3c([nH]c4ccccc34)[C@H](c3ccc4c(c3)OCO4)N2C(=O)CN1CC(F)(F)F", "note": "(relative stereo) [Example 14, Cis-2,3,6,7,12,12a-Hexahydro-2-(2,2,2-Trifluoroethyl)-6-(3,4-Methylenedioxyphenyl)-Pyrazino(2′,1′:6,1)Pyrido(3,4-b)Indole-1,4-Dione]", "melting point": 303},
      {"smiles": "O=C1[C@H]2Cc3c([nH]c4ccccc34)[C@H](c3ccc4c(c3)OCO4)N2C(=O)CN1Cc1ccccc1", "note": "(relative stereo) [Example 23, Cis-2,3,6,7,12,12a-Hexahydro-2-Benzyl-6-(3,4-Methylenedioxyphenyl)Pyrazino(2′,1′:6,1)Pyrido(3,4-b)Indole-1,4-Dione]", "melting point": "285 to 287"},
      {"smiles": "CC(C)c1ccc([C@H]2c3[nH]c4ccccc4c3C[C@@H]3C(=O)N(C)CC(=O)N23)cc1", "note": "(relative stereo) [Example 74, Cis-2,3,6,7,12,12a-Hexahydro-6-(4-Isopropylphenyl)-2-Methylpyrazino(2′,1′:6,1)Pyrido(3,4-b)Indole-1,4-Dione]", "melting point": 244},
      {"smiles": "CCCCN1CC(=O)N2[C@H](c3ccc(OC)cc3)c3[nH]c4ccccc4c3C[C@@H]2C1=O", "note": "[Example 85, (6R,12aR)-2,3,6,7,12,12a-Hexahydro-2-Butyl-6-(4-Methoxyphenyl)-Pyrazino(2′,1′:6,1)Pyrido(3,4-b)Indole-1,4-Dione]", "melting point": "183 to 184"},
      {"smiles": "CCCCN1CC(=O)N2[C@@H](c3ccc(NS(C)(=O)=O)cc3)c3[nH]c4ccccc4c3C[C@@H]2C1=O", "note": "(relative stereo) [Example 100, Cis-2,3,6,7,12,12a-Hexahydro-2-Butyl-6-(4-Methylsulfonamidophenyl)-Pyrazino(2′,1′:6,1)Pyrido(3,4-b)Indole-1,4-Dione]", "melting point": 188},
      {"smiles": "CN1CC(=O)N2[C@@H](c3cc(Br)cs3)c3[nH]c4ccccc4c3C[C@@H]2C1=O", "note": "(relative stereo) [Example 53, Cis-2,3,6,7,12,12a-Hexahydro-6-(4-Bromo-2-Thienyl)-2-Methylpyrazino(2′,1′:6,1)Pyrido(3,4-b)Indole-1,4-Dione]", "melting point": 292},
      {"smiles": "COc1ccc([C@@H]2c3[nH]c4ccccc4c3C[C@@H]3C(=O)N(C4CCCC4)CC(=O)N23)cc1", "note": "[Example 86, (6R,12aR)-2,3,6,7,12,12a-Hexahydro-2-Cyclopentyl-6-(4-Methoxyphenyl)-Pyrazino(2′,1′:6,1)Pyrido(3,4-b)Indole-1,4-Dione]", "melting point": "210 to 211"},
      {"smiles": "CCCCN1CC(=O)N2[C@@H](c3ccsc3)c3[nH]c4ccccc4c3C[C@@H]2C1=O", "note": "(relative stereo) [Example 58, Cis-2,3,6,7,12,12a-Hexahydro-2-Butyl-6-(3-Thienyl)-Pyrazino(2′,1′:6,1)Pyrido(3,4-b)Indole-1,4-Dione]", "melting point": "236 to 239"},
      {"smiles": "O=C1[C@H]2Cc3c([nH]c4ccccc34)[C@@H](c3ccc4c(c3)CCC4)N2C(=O)CN1CC1CC1", "note": "[Example 94, (6R,12aR)-2,3,6,7,12,12a-Hexahydro-6-(5-Indanyl)-2-Cyclopropylmethylpyrazino(2′,1′:6,1)Pyrido(3,4-b)Indole-1,4-Dione]", "melting point": 176},
      {"smiles": "CN1CC(=O)N2[C@H](c3ccc4c(c3)CCN4)c3[nH]c4ccccc4c3C[C@@H]2C1=O", "note": "[Example 111, (6R,12aR)-2,3,6,7,12,12a-Hexahydro-6-(5-Indolinyl)-2-Methyl-Pyrazino(2′,1′:6,1)Pyrido(3,4-b)Indole-1,4-Dione]", "melting point": 240},
      {"smiles": "CC(C)N1CC(=O)N2[C@H](c3ccc4occc4c3)c3[nH]c4ccccc4c3C[C@@H]2C1=O", "note": "[Example 122, (6R, 12aR)-2,3,6,7, 12, 12a-Hexahydro-6-(5-Benzofuranyl)-2-Isopropyl-Pyrazino [2′,1′:6,1]Pyrido [3,4-B]Indole-1,4-Dione]", "melting point": "291 to 292"},
      {"smiles": "CN1CC(=O)N2[C@@H](c3ccc4c(c3)CCCC4)c3[nH]c4ccccc4c3C[C@@H]2C1=O", "note": "(relative stereo) [Example 47, Cis-2,3,6,7,12,12a-Hexahydro-2-Methyl-6-(1,2,3,4-Tetrahydro-6-Naphthyl)Pyrazino(2′,1′:6,1)Pyrido(3,4-b)Indole-1,4-Dione]", "melting point": 260},
      {"smiles": "O=C1[C@H]2Cc3c([nH]c4ccccc34)[C@@H](c3ccc4c(c3)OCO4)N2C(=O)CN1Cc1ccco1", "note": "[Example 105, (6R,12aR)-2,3,6,7,12,12a-Hexahydro-2-Furfuryl-6-(3,4-Methylenedioxyphenyl)-Pyrazino(2′,1′:6,1)Pyrido(3,4-b)Indole-1,4-Dione]", "melting point": 219},
      {"smiles": "CN1CC(=O)N2[C@@H](c3ccc(Br)s3)c3[nH]c4ccccc4c3C[C@@H]2C1=O", "note": "(relative stereo) [Example 52, Cis-2,3,6,7,12,12a-Hexahydro-6-(5-Bromo-2-Thienyl)-2-Methylpyrazino(2′,1′:6,1)Pyrido(3,4-b)Indole-1,4-Dione]", "melting point": 258},
      {"smiles": "O=C1[C@H]2Cc3c([nH]c4ccccc34)[C@H](c3ccc4c(c3)OCO4)N2C(=O)CN1Cc1cccnc1", "note": "(relative stereo) [Example 11, Cis-2,3,6,7,12,12a-Hexahydro-2-(3-Pyridylmethyl)-6-(3,4-Methylenedioxyphenyl)-Pyrazino(2′,1′:6,1)Pyrido(3,4-b)Indole-1,4-Dione]", "melting point": "292 to 293"},
      {"smiles": "CCCCN1CC(=O)N2[C@@H](c3ccc(C)cc3)c3[nH]c4ccccc4c3C[C@@H]2C1=O", "note": "(relative stereo) [Example 63, Cis-2,3,6,7,12,12a-Hexahydro-2-Butyl-6-(4-Methylphenyl)-Pyrazino(2′,1′:6,1)Pyrido(3,4-b)Indole-1,4-Dione]", "melting point": 194},
      {"smiles": "CN1CC(=O)N2[C@H](c3ccc4occc4c3)c3[nH]c4ccccc4c3C[C@@H]2C1=O", "note": "[Example 120, (6R, 12aR)-2,3,6,7, 12, 12a-Hexahydro-6-(5-Benzofuranyl)-2-Methyl-Pyrazino[2′,1′:6,1]Pyrido[3,4-b]Indole-1,4-Dione]", "melting point": "291 to 293"},
      {"smiles": "Cc1ccc([C@H]2c3[nH]c4ccccc4c3C[C@@H]3C(=O)N(C)CC(=O)N23)o1", "note": "(relative stereo) [Example 60, Cis-2,3,6,7,12,12a-Hexahydro-2-Methyl-6-(5-Methyl-2-Furyl)-Pyrazino(2′,1′:6,1)Pyrido(3,4-b)Indole-1,4-Dione]", "melting point": 303},
      {"smiles": "CC(C)N1CC(=O)N2[C@@H](c3ccc4c(c3)OCO4)c3[nH]c4ccccc4c3C[C@@H]2C1=O", "note": "(relative stereo) [Example 16, Cis-2,3,6,7,12,12a-Hexahydro-2-Isopropyl-6-(3,4-Methylenedioxyphenyl) Pyrazino(2′,1′:6,1)Pyrido(3,4-b)Indole-1,4-Dione]", "melting point": "248 to 250"},
      {"smiles": "Cc1ccc([C@H]2c3[nH]c4ccccc4c3C[C@@H]3C(=O)N(C)CC(=O)N23)s1", "note": "(relative stereo) [Example 56, Cis-2,3,6,7,12,12a-Hexahydro-2-Methyl-6-(5-Methyl-2-Thienyl)Pyrazino(2′,1′:6,1)Pyrido(3,4-b)Indole-1,4-Dione]", "melting point": 282},
      {"smiles": "CC(C)N1CC(=O)N2[C@@H](c3ccc4c(c3)CCCC4)c3[nH]c4ccccc4c3C[C@@H]2C1=O", "note": "(relative stereo) [Example 48, Cis-2,3,6,7,12,12a-Hexahydro-2-Isopropyl-6-(1,2,3,4-Tetrahydro-6-Naphthyl)Pyrazino(2′,1′:6,1)Pyrido(3,4-b)Indole-1,4-Dione]", "melting point": "244 to 246"},
      {"smiles": "C[C@@H]1NC(=O)[C@H]2Cc3c([nH]c4ccccc34)[C@@H](c3ccc4occc4c3)N2C1=O", "note": "[Example 123, (3S, 6R, 12aR)-2,3,6,7, 12, 12a-Hexahydro-6-(5-Benzofuranyl)-3-Methyl-Pyrazino[2′,1′:6,1]Pyrido [3,4-b]Indole-1,4-Dione]", "melting point": "150 to 151"},
      {"smiles": "COc1ccc([C@H]2c3[nH]c4ccccc4c3C[C@@H]3C(=O)N(CC(F)(F)F)CC(=O)N23)cc1", "note": "(relative stereo) [Example 28, Cis-2,3,6,7,12,12a-Hexahydro-6-(4-Methoxyphenyl)-2-(2,2,2-Trifluoroethyl)Pyrazino(2′,1′:6,1)Pyrido(3,4-b)Indole-1,4-Dione]", "melting point": 232},
      {"smiles": "COc1ccc(CCN2CC(=O)N3[C@H](c4ccc5c(c4)OCO5)c4[nH]c5ccccc5c4C[C@@H]3C2=O)cc1OC", "note": "[Example 104, (6R,12aR)-2,3,6,7,12,12a-Hexahydro-2-(3,4-Dimethoxyphenethyl)-6-(3,4-Methylenedioxyphenyl)-Pyrazino(2′,1′:6,1)Pyrido(3,4-b)Indole-1,4-Dione]", "melting point": "265 to 266"}
    ]}
  ]
}
